From patent US20180372720A1, “STABLE ISOTOPE LABELING KINETICS - SECONDARY ION MASS SPECTROMETRY (SILK SIMS) AND METHODS OF USE THEREOF” (Washington University, priority 2017, published 2018)

Legend:
amyloid-β plaques = details: mouse, in vivo
Procedure: To assess the feasibility of detecting ^13C6-leucine isotopic enrichment in native amyloid-β plaques, tracer was administered to APP/PS1 mice at 3.5 months of age (pre-plaque pathology) for 10 and 5 weeks (FIG. 2A).
Two male double transgenic mice expressing chimeric mouse/human amyloid precursor protein (Mo/HuAPP695swe) and a mutant human presenilin 1 (PS1-dE9) both directed to CNS neurons (stock 34832-JAX) were kindly provide by Dr. Timothy Miller. Animals were given leucine-free chow (Catalog #1831936, Test Diet, St. Louis, Mo.) with 5 mg/mL ^12C6-leucine added to 2% sucrose-containing drinking water to control leucine intake for a one week acclimation period. After the one-week acclimation period, animals were given 5 mg/mL ^13C6- or ^12C6-leucine orally via 2% sucrose drinking water, averaging 36 mL of H2O/week (FIG. 2). Animals were 4 months old at the time of labeling and 6.5 months old at the end of labeling. Following the end of the labeling paradigm, animals were anesthetized with 65 mg/kg pentobarbital sodium and sacrificed by decapitation. Brains were removed and placed in 10% neutral-buffer formalin (Catalog #15740-01, EMS, Hatfield, Pa.). All animal procedures were conducted in accordance with the Washington University Animal Studies Committee, and are consistent with the National Institutes of Health (NIH) guidelines for the care and use of animals. Pieces of mouse brain were washed into NaHCa and incubated overnight at 4° C. The following morning, samples were stained with 1% osmium/NaHCa for 1 hour, washed 4 times over 1 hour and then en bloc stained with 1% uranyl acetate/H2O for 1 hour in the dark. Samples were rinsed with 3 exchanges of water, 10 minutes each and then processed for LR White embedding as described above with the addition of being gold-coated once on the Si wafer. Serial adjacent sections were place on glass microscope slides for toluidine blue staining for light microscopy.
Data was acquired on either a Cameca NanoSIMS 50 at WASHU (cells and human tissue) or NanoSIMS 50 L at Brigham and Women's Hospital (mouse tissue). Images of the B-cell hybridoma used to calculate that ^13C6-leucine standard curve were acquired at a 50 μm raster for 15 minutes at 1 ms/px and 65.5 s/plane (dwell time) for a total of 10 planes (i.e., cycles) per mass (256×256 px). APP/PS1 mouse brain tissue was acquired at a 17-60 μm raster for 11-87 minutes at 2 ms/px and 131 s/plane (dwell time) for a total of 5-40 cycles (i.e., planes) per mass (256×256 px).
Each analysis was performed in 24-hour blocks with measurements on SiC standard to assess instrument stability followed by measurements on an un-labeled control prior to SILK-SIMS data acquisition. Raw image data was imported into custom, in-house particle definition software, L'Image, to produce quantitative mass images of heavy and light isotopes, and determine where any isotopic anomalies may be located. The fractional uncertainty, f, of the heavy/light isotope ratios in each region-of-interest (ROI) was calculated in Excel as the sum in quadrature of the standard deviation of the average ratios measured for non-labeled material, σStd, and the Poisson errors, σROI, of the ROI itself, as given by the equation

[1] = mouse, in vivo
Procedure: Mouse whole blood was spun at 1,000×g for 10 min and the plasma (supernatant) removed. Plasma proteins were precipitated with ice-cold acetone followed by de-lipidation with hexane and the aqueous fraction was dried in vacuo^1. 1:1 MTBSTFA/acetonitrile was added and samples were incubated 70° C. for 30 min. Duplicate 1 μL injections were made into an Agilent 5973 MSD mass spectrometer using a 30 μm×0.25 mm DB-5MS column (Agilent Technologies). […] The molar fraction of labeled leucine was calculated as: MFL=TTR/(1+TTR).

Aβ plaques = details: in vivo
Procedure: Human cortical tissue samples were obtained from the Charles F. and Joanne Knight Alzheimer's Disease Research Center (ADRC) at Washington University School of Medicine in Saint Louis, Mo. Cognitive status was determined with a validated retrospective postmortem interview with an informant to establish the Clinical Dementia Rating (CDR). […] At autopsy, the left hemisphere was fixed in 10% neutral buffered formalin and stored at room temperature until further preparation.
Blocks were polymerized at 80° C. for 72 hrs. Tissue blocks were sectioned using a diamond ultrathin section knife on a Reichert Ultra-Cut E ultramicrotome at 300-500 nm thick. […]
Each analysis was performed in 24-hour blocks with measurements on SiC standard to assess instrument stability followed by measurements on an un-labeled control prior to SILK-SIMS data acquisition. Raw image data was imported into custom, in-house particle definition software, L'Image, to produce quantitative mass images of heavy and light isotopes, and determine where any isotopic anomalies may be located. The fractional uncertainty, f, of the heavy/light isotope ratios in each region-of-interest (ROI) was calculated in Excel as the sum in quadrature of the standard deviation of the average ratios measured for non-labeled material, σStd, and the Poisson errors, σROI, of the ROI itself, as given by the equation […]

Aβ proteoforms = details: Pt2, 8 days between labeling and expiration
Procedure: 1 g of frontal lobe tissue was homogenized in ice-cold 1×PBS with 0.05% CHAPS and centrifuged at 17,000×g for 30 min at 4° C. as previously described^4. The supernatant was spun for 1 hr at 100,000×g at 4° C. and the resulting pellet solubilize in 5 M guanidine overnight at 4° C. with rotation. Next, samples were spun for 20 min at 17,000×g at 4° C. and the supernatant was diluted 1:10 in 1×PBS in BSA-block tubes as previously described^4. Samples were immunoprecipitated (IP) with 50 uL of HJ5.1 anti-Aβ antibody (mid-domain epitope) coupled Dynabeads (Catalog #14311 D, Invitrogen, Carlsbad, Calif.) made following the manufacturer's instructions. After overnight incubation at 4° C. IPs were eluted in neat formic acid and dried in vacuo. Samples were resuspended in 50 mM TEABC (Catalog #17902, Sigma, St. Louis, Mo.), spiked with ^15N-Aβ internal standard, and digested overnight with 0.25 ng/μL Lys-N(Catalog #100965-1, Seikagaku Biobusiness Corp., Tokyo, Japan) at 4° C.
Samples were resuspended in 1% FA/10% ACN (v/v) with 20 nM BSA digest (Catalog #1863078, Pierce, Rockford, Ill.). Samples were analyzed in triplicate by nanoLC-MS/MS on an LTQ-Orbitrap Fusion (Thermo Fisher Scientific) in positive ion mode. Separations were performed using an online NanoAcquity UPLC (Waters, Milford, Mass.) using an ACQUITY UPLC HSS T3 (360 μm OD×75 μm ID) column packed with 10 cm C18 (1.8 μm, 100 Å, Waters) at 300 nL/min and heated to 65° C. Mobile phases were 0.1% FA in water (A) and 0.1% FA in ACN (B). Samples were eluted from the column with the gradient starting at 12% B, which was ramped to 32% B over 10 min and further increased to 90% B over 5 min and held for 1 min, before re-equilibration to 12% B over 2 min. Total run time, including column equilibration, sample loading, and analysis was 30 min. The mass spectrometer was operated in targeted MS2 mode. MS2 spectra were acquired in the Orbitrap (30,000 at m/z 400) in centroid mode using XCalibur, version 4.0 (Thermo Fisher Scientific). Ion injection times for the targeted MS2 scans for labeled and unlabeled respectively (in ms) were: Aβ mid-domain (54, 1080), Aβ40 (54, 540), and Aβ42 (54, 1080). The Orbitrap automatic gain control targets were set 5×10^5 for all proteoforms except Aβ42, which was set to 1×10^6. The targeted precursor ions were sequentially isolated in the quadrupole and fragmented in the Orbitrap using HCD (isolation width 1.6 Da, normalized collision energy 25%, activation Q 0.250, and activation time 10 ms). […]
Data (.raw files) were imported into a Skyline template containing the Lys-N C-terminal peptides of Aβ8, 40, 42 and the mid-domain. […] The sum of all transitions (b ions monitored for each parent peptide) were summed for unlabeled and SILK Aβ peptides and exported from Skyline to Excel. […]

For `CC(C)C[C@H](N)C(=O)O` [^13C6-leucine], the “normalized tracer enrichment ratio” value (amyloid-β plaques) was 0.015±2.22×10^−4, the “raw tracer enrichment ratio” value (amyloid-β plaques) was 0.015±1.56×10^−5 and the “^13C/^12C isotope ratio” value (amyloid-β plaques; po) was 2.7%. For the same compound, the “^13C/^12C ratio” value (amyloid-β plaques; po) was 3.7%, the “normalized ^13C^14N−/^12C^14N− ratio” value (amyloid-β plaques; po) was 0.024±3.43×10^−4 and the “raw ^13C^14N−/^12C^14N− ratio” value (amyloid-β plaques; po) was 0.023±1.41×10^−5. The “Average Mol fraction labeled” value [1] was 72.02%, the “increase above the natural abundance of ^13C/^12C” value (Aβ plaques) was 18% and the “mean ratio of ^13C^14N−/^12C^14N−” value (Aβ plaques) was 1.31%±0.05. The “detection of labeled Aβx-38” value (Aβ proteoforms) was “unable detect”, the “enrichment above isotopic background, Aβ mid-domain” value (Aβ proteoforms) was 0.053% and the “enrichment above isotopic background, Aβx-40” value (Aβ proteoforms) was 0.112%. The “enrichment above isotopic background, Aβx-42” value (Aβ proteoforms) was 0.022%.
